Key:
male NIH-Swiss mice = assay: Forced-swim test in mice (mFST); type: in vivo, mouse
Excerpt: Forced-Swim Test in Mice (mFST)
mFST is an established in vivo assay for antidepressant activity (Li et al. J Pharmacol Exp Ther. 319(1):254-9, 2006.). […] The mFST was used to evaluate potential antidepressant-like activity of novel mGlu2/3 antagonists essentially as described in previously published methods (see for example, Li et al. J Pharmacol Exp Ther. 319(1):254-9, 2006.). Briefly, male NIH-Swiss mice (Harlan Sprague-Dawley, Indianapolis, Ind.) weighing between 25-30 g are used. Group housed animals are removed from the vivarium to the testing area in their own cages and allowed to adapt to the new environment for at least 1 hour before testing. Compounds where R^1 and R^2 are both hydrogen are dissolved in water with minimal NaOH added for dissolution and are administered i.p. Compounds where R^1 and/or R^2 are other than hydrogen are prepared on the day of use in 2.0-2.5% N-methyl-pyrrolidinone and then suspended in 1% HEC, 0.25% Tween 80, and 0.05% Dow antifoam, and administered orally. Mice are placed in a cylinder (diameter: 10 cm; height: 25 cm) filled with 6 cm of water (22-25° C.) for 6 min. The duration of immobility during the last 4 min. of the 6 min. period of the test was scored. A mouse is recorded as immobile when floating motionless or making only those movements necessary to keep its head above water.

mGlu2+/+ mice = assay: mFST in mGlu2+/+ littermate mice; type: in vivo, mouse; settings: 30 mg/kg, po, 120 min prior
mice = assay: mFST with SSRI (fluoxetine combination); type: in vivo, mouse
Protocol: mFST is an established in vivo assay for antidepressant activity (Li et al. J Pharmacol Exp Ther. 319(1):254-9, 2006.). […] J Pharmacol Exp Ther. 319(1):254-9, 2006.). Briefly, male NIH-Swiss mice (Harlan Sprague-Dawley, Indianapolis, Ind.) weighing between 25-30 g are used. Group housed animals are removed from the vivarium to the testing area in their own cages and allowed to adapt to the new environment for at least 1 hour before testing. Compounds where R^1 and R^2 are both hydrogen are dissolved in water with minimal NaOH added for dissolution and are administered i.p. […] Mice are placed in a cylinder (diameter: 10 cm; height: 25 cm) filled with 6 cm of water (22-25° C.) for 6 min. The duration of immobility during the last 4 min. of the 6 min. period of the test was scored. A mouse is recorded as immobile when floating motionless or making only those movements necessary to keep its head above water. The compounds of the invention may also be tested in combination with other compounds useful for the treatment of depressive disorders, as for example SSRI's, for their ability to enhance the antidepressant-like effects over that of either compound alone.

[1] = Brain and plasma levels of active di-acid in the fluoxetine combination study; type: in vivo, mouse; settings: combination with fluoxetine versus alone
Excerpt: The compounds of the invention may also be tested in combination with other compounds useful for the treatment of depressive disorders, as for example SSRI's, for their ability to enhance the antidepressant-like effects over that of either compound alone.

male Wistar rats = assay: Wakefulness and behavioral monitoring in rats (EEG/EMG/LMA); type: in vivo, rat; settings: for Locomotor Activity Intensity, Mean (difference from vehicle controls): averaged over the first 7 hr post-treatment; for Cumulative Time Awake 8-19 hours, Mean (difference from vehicle controls): rebound hypersomnolence measure
Protocol: Wakefulness and Behavioral Monitoring in Rats:
Representative compounds of the present invention are tested in rats for their ability to increase the amount of time in a state of wakefulness without undesired effects such as inhibition of REM sleep, waking motor impairment (disproportionate hyper- or hypolocomotion), and/or rebound hypersomnia Test animals are continuously monitored by electro-encephalograms (EEG), electromyograms (EMG), and motion to measure cumulative time awake, rebound hypersomnia, and locomotor activity intensity during wakefulness. Methods for such studies are known in the art (see for example methods described in Edgar D M, Seidel W F. Modafinil induces wakefulness without intensifying motor activity or subsequent rebound hypersomnolence in the rat. J Pharmacology & Experimental Therapeutics 1997; 283: 757-769; van Gelder R N, Edgar D M, Dement W C. Real-time automated sleep scoring: validation of a microcomputer-based system for mice. Sleep 1991, 14: 48-55; and Gross B A, Walsh C M, Turakhia A A, Booth V, Mashour G A, Poe G R. Open-source logic-based automated sleep scoring software using electrophysiological recordings in rats. J Neurosci Methods. 2009; 184(1):10-8.) Studies are conducted as follows:
Adult, male Wistar rats (approximately 270-300 g at time of surgery) are surgically fitted for chronic recording of EEG, EMG, body temperature, and motion as follows: Rats are surgically prepared with a cranial implant consisting of four stainless steel screws for EEG recording (two frontal [3.9 mm anterior from bregma, and ±2.0 mm mediolaterally] and two occipital [6.4 mm posterior from bregma, ±5.5 mm mediolaterally]), and with two Teflon-coated stainless steel wires for EMG recording (positioned under the nuchal trapezoid muscles). All leads are soldered to a miniature connector (Microtech, Boothwyn, Pa.) prior to surgery. The implant assembly is affixed to the skull by the combination of the stainless steel EEG recording screws, cyanoacrylate applied between the implant connector and skull, and dental acrylic. Body temperature and locomotor activity is monitored via a miniature transmitter (Minimitter PDT4000G, Philips Respironics, Bend, Oreg.) surgically placed into the abdomen. At least 3 weeks are allowed for recovery.
Each rat is housed individually within a microisolator cage modified with an inserted polycarbonate filter-top riser to allow more vertical headroom. A flexible cable that minimally restricts movement is connected at one end to a commutator affixed to the cage top and at the other end to the animal's cranial implant. Each cage is located within separate, ventilated compartments of a stainless steel sleep-wake recording chamber. Food and water are available ad libitum and the ambient temperature is maintained at about 23±1° C. A 24-hr light-dark cycle (LD 12:12) using fluorescent light is maintained throughout the study. Relative humidity averages approximately 50%. Animals are undisturbed for at least 30 hrs before and after each treatment.
Compounds where R^1 and R^2 are both hydrogen are dissolved in water with minimal NaOH added for dissolution and are administered i.p in a volume of 1.0 mL per kg body weight. Compounds where R^1 and/or R^2 are other than hydrogen are administer p.o. in a volume of 2 mL per kg body weight in one of two alternative vehicles: i) 2.5% N-methyl-2-pyrrolidinone in hydroxyethylcellulose; or ii) 10% acacia with 0.05% Dow Corning® Antifoam in water. The vehicle or one of the compound dose levels is administered pseudo-randomly such that no rat receives the same treatment twice, and no rat receives more than two of the 8 treatments in any one study. Each rat is removed from its cage for about a minute to be weighed and treated. At least 6 days “washout” period precede and follow each treatment.
Sleep and wakefulness discrimination may be automated (e.g., Van Gelder et al. 1991; Edgar et al. 1997, Winrow et al., 2010; Gross et al., 2009). […]

SMILES: CC(C)OC(=O)OCOC(=O)[C@H]1[C@@H]2[C@H](O)[C@@H](OCc3ccc(Cl)c(Cl)c3)[C@@](N)(C(=O)OCOC(=O)OC(C)C)[C@H]12.Cl [Example 10, Bis({[(1-methylethoxy)carbonyl]oxy}methyl) (1S,2R,3S,4S,5R,6R)-2-amino-3-[(3,4-dichlorobenzyl)oxy]-4-hydroxybicyclo[3.1.0]hexane-2,6-dicarboxylate hydrochloride]
- ED60 (male NIH-Swiss mice; Mus musculus, po, immobility in last 4 min of 6 min): 22.1 mg/kg
- Maximal Decrease (1 − compound/control) * 100% (male NIH-Swiss mice; p.o., immobility time): 50.5%
- immobility time (mGlu2+/+ mice): decrease immobility time
- antidepressant-like effect in combination with fluoxetine (mice; Example 10 17 mg/kg p.o. with fluoxetine 10 mg/kg i.p.): significantly increase the antidepressant-like effect over that of either compound alone
- Maximal Decrease (1 − compound/control) * 100% (mice; Example 10 17 mg/kg p.o., fluoxetine 10 mg/kg i.p., alone or combined): 24.5%
- Immobilization Time (mice; Example 10 17 mg/kg p.o., fluoxetine 10 mg/kg i.p., alone or combined, vehicle 174): 105 s
- brain and plasma levels of the active di-acid moiety [1]: no increase in exposure levels
- Cumulative Time Awake first 7 hours, Mean (difference from vehicle controls) (male Wistar rats; 10 mg/kg PO): 20.4 min
- Locomotor Activity Intensity, Mean (difference from vehicle controls) (male Wistar rats; 10 mg/kg PO): 2.7 counts of LMA per minute of EEG-defined wakefulness
- Cumulative Time Awake 8-19 hours, Mean (difference from vehicle controls) (male Wistar rats; 10 mg/kg PO): 15.2 min
- Cumulative Time Awake first 7 hours, Mean (difference from vehicle controls) (male Wistar rats; 30 mg/kg PO): 48.8 min
- Locomotor Activity Intensity, Mean (difference from vehicle controls) (male Wistar rats; 30 mg/kg PO): 0.5 counts of LMA per minute of EEG-defined wakefulness
- Cumulative Time Awake 8-19 hours, Mean (difference from vehicle controls) (male Wistar rats; 30 mg/kg PO): 25.6 min
- Cumulative Time Awake first 7 hours, Mean (difference from vehicle controls) (male Wistar rats; 60 mg/kg PO): 64.7 min
- Locomotor Activity Intensity, Mean (difference from vehicle controls) (male Wistar rats; 60 mg/kg PO): 4.2 counts of LMA per minute of EEG-defined wakefulness
- Cumulative Time Awake 8-19 hours, Mean (difference from vehicle controls) (male Wistar rats; 60 mg/kg PO): 34.7 min

From patent US9056844B2, “4-substituted-3-benzyloxy-bicyclo[3.1.0]hexane compounds as mGluR 2/3 antagonists” (Eli Lilly and Company, priority 2010, dated 2015)
